Measurements published in PMC8585119, “MATE-Type Proteins Are Responsible for Isoflavone Transportation and Accumulation in Soybean Seeds” (International Journal of Molecular Sciences, 2021).
Residue numbers refer to the chain shown, from its start.

How the values were obtained:
Assay in all cases: yeast uptake assay, UPLC of cell extract versus empty vector
Format in all cases: cell-based
Conditions in all cases: fed as 200 uM mixture of genistein, daidzein and glycitein; PBS pH 7.4, 30 °C, overnight/24 h; whole yeast cells
GmMATE1^W05 = target: T1, GmMATE1^W05 (Glycine soja, UniProt A0A191UP88)
T1 construct: gene MATE1; full-length CDS in pGBKT7 without GAL4 BD, ADH1 promoter, in yeast Y2HGold; no tag stated
T1 sequence (A0A191UP88 1-495): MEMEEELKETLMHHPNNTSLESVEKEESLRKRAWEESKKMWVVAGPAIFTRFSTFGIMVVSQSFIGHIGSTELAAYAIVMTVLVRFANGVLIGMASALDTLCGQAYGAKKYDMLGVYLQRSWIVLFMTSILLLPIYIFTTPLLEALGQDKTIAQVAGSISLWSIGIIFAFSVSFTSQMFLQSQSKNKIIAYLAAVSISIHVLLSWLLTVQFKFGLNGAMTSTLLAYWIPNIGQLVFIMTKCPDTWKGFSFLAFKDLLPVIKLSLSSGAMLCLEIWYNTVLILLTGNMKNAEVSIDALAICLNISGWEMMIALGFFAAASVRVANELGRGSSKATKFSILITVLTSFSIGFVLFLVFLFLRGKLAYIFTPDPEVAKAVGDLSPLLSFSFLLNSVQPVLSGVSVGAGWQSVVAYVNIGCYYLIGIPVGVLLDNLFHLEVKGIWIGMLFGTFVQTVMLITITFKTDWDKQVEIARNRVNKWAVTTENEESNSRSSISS

GmMATE1^C08 = target: T2, GmMATE1^C08 (Glycine max, UniProt I1N8G7)
T2 construct: gene LOC100775619; full-length CDS in pGBKT7 without GAL4 BD, ADH1 promoter, in yeast Y2HGold; no tag stated
T2 sequence (I1N8G7 1-495): T1 sequence (A0A191UP88 1-495) with L206V, S330N

GmMATE2^C08 = target: T3, GmMATE2^C08 (Glycine max, UniProt I1N8G8)
T3 construct: gene LOC100796360; full-length CDS in pGBKT7 without GAL4 BD, ADH1 promoter, in yeast Y2HGold; no tag stated
T3 sequence (I1N8G8 1-496): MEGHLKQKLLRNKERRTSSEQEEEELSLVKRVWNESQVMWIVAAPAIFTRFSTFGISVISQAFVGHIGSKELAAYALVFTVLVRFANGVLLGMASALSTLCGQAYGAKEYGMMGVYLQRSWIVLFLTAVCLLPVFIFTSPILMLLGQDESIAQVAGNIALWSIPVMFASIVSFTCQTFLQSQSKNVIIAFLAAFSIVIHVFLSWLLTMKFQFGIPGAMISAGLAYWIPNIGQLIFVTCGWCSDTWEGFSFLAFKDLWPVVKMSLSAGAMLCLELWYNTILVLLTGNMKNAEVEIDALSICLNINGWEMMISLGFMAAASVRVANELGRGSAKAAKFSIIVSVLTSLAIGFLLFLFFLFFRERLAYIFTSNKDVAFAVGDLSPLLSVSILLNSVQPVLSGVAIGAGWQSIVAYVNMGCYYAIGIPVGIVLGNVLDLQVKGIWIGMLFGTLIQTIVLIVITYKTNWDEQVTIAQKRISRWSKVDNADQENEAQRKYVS

GmMATE2^W05 = target: T4, GmMATE2^W05 (Glycine soja, UniProt A0A191UP89)
T4 construct: gene MATE2; full-length CDS in pGBKT7 without GAL4 BD, ADH1 promoter, in yeast Y2HGold; no tag stated
T4 sequence (A0A191UP89 1-496): T3 sequence (I1N8G8 1-496) with N483S

| SMILES | yeast uptake assay, UPLC of cell extract versus empty vector (GmMATE1^W05) | yeast uptake assay, UPLC of cell extract versus empty vector (GmMATE1^C08) | yeast uptake assay, UPLC of cell extract versus empty vector (GmMATE2^C08) | yeast uptake assay, UPLC of cell extract versus empty vector (GmMATE2^W05) |
| --- | --- | --- | --- | --- |
| O=c1c(-c2ccc(O)cc2)coc2cc(O)cc(O)c12 [genistein] | allelic forms from either the cultivated soybean C08 or the wild soybean W05 exhibited similar | yeasts expressing GmMATE1 and GmMATE2 significantly accumulated more of all three metabolites | yeasts expressing GmMATE1 and GmMATE2 significantly accumulated more of all three metabolites | allelic forms from either the cultivated soybean C08 or the wild soybean W05 exhibited similar |
| O=c1c(-c2ccc(O)cc2)coc2cc(O)ccc12 [daidzein] | allelic forms from either the cultivated soybean C08 or the wild soybean W05 exhibited similar | yeasts expressing GmMATE1 and GmMATE2 significantly accumulated more of all three metabolites | yeasts expressing GmMATE1 and GmMATE2 significantly accumulated more of all three metabolites | allelic forms from either the cultivated soybean C08 or the wild soybean W05 exhibited similar |
